# Like-named read-outs stand apart in the source and are kept apart here.
# Legend:
# [1] = target: T1, HSV-1 ribonucleotide reductase (Human herpesvirus 1, UniProt P08543); assay: Inhibition of Herpes Simplex Virus (HSV-1) ribonucleotide reductase; format: biochemical; conditions: assay of example 10
# T1 construct: HSV-1 ribonucleotide reductase (partially purified) was obtained from quiescent BHK-21/C13 cells infected with strain F HSV-1 virus; made in house; host or cells: quiescent BHK-21/C13 cells infected with HSV-1 strain F (virus-encoded enzyme, partially purified)
# Text: Inhibition of Herpes Simplex Virus (HSV-1) Ribonucleotide Reductase
# • a) Preparation of Enzyme HSV-1 ribonucleotide reductase (partially purified) was obtained from quiescent BHK-21/C13 cells infected with strain F HSV-1 virus at 10 plaque forming units/cell as described by E.A. Cohen et al., J. Gen. Virol., 66, 733 (1985). • b) Assay and Results for Exemplified Peptides By following the procedure described by P. Gaudreau et al., J. Biol, Chem., 262, 12413 (1987), the assay results listed in the following Table I were obtained. The assay result for each exemplified compound of formula 1 is expressed as the concentration of the compound producing 50% of the maximal inhibition (IC50) of enzyme activity. The number of units of the enzyme preparation used in each assay was constant, based on the specific activity of the enzyme preparation. The results are relative to the activity obtained in control experiments without the test compound and represent the mean of four assays that varied less than 10% with each other.
# HSV-2 = assay: Inhibition of Herpes Simplex Virus (HSV-2) replication in cell culture; format: cell-based; conditions: cell culture assay of example 11
# Method: Inhibition of Herpes Simplex Virus (HSV-2) Replication in Cell Culture
# BHK-21/C13 cells (ATCC CCL 10) are incubated for two days in 150 cm^2 T-flasks (1.5 x 10^6 cells/flask) with alpha-MEM medium (Gibco Canada Inc., Burlington, Ontario, Canada) supplemented with 8% (v/v) fetal bovine serum (FBS, Gibco Canada Inc.). The cells are trypsinized and then transferred to fresh media in a 24 well plate to give 2.5 x 10^5 cells in 750 µL of media per well. The cells are incubated at 37° for a period of 6 h to allow them to adhere to the plate. Thereafter, the cells are washed once with 500 µL of alpha-MEM supplemented with 0.5% (v/v) FBS and then incubated with 750 µL of the same media (low serum) for 3 days. After this period of serum starvation, the low serum medium is removed and the cells are incubated in 500 µL of BBMT for 2 to 3 hours. {BBMT medium is described by P. Brazeau et al., Proc. Natl. Acad. Sci. USA, 79, 7909 (1982).} Thereafter, the cells are infected with HSV-2 (multiplicity of infection = 0.02 PFU/cell) in 100 µL of BBMT medium. (Note: The HSV-2 used was strain HG-52, see Y. Langelier and G. Buttin, J. Gen. Virol., 57, 21 (1981); the virus was stored at -80°.) Following 1 h of virus adsorption at 37°, the media is removed and the cells are washed with BBMT (3 X 250 µL). The cells in each well are incubated with or without (control) appropriate concentrations of the test agent dissolved in 200 µL of BBMT medium. After 29 h of incubation at 37°, the infected cells are harvested by first freezing the plate at -80°, followed by thawing. The cells in each well are scraped off the surface of the well with the help of the melting ice fragments. After complete thawing, the cell suspensions are collected and each well is rinsed with 150 µL of BBMT medium. The viral sample (suspension plus washing) is sonicated gently for 4 min at 4°. Cell debris are removed by centrifugation (1000 times gravity for 10 minutes at 4°). The supernatant is collected and stored at -80° until determination of viral titer.
# Viral titration was performed by a modification of the colorimetric assay method of M. Langlois et al., Journal of Biological Standardization, 14, 201 (1986).
# More specifically, in a similar manner as described above, BHK-21/C13 cells are trypsinized and transferred to fresh media in a 96 well microtiter plate to give 20,000 cells in 100 µL of media per well. The cells in the prepared plate are incubated at 37° for 2 h. During that time, the viral sample is thawed and sonicated gently for 15 seconds, and log dilutions of the sample are prepared (1/5 sequential: 50 µL of the sample plus 200 µL of BBMT medium, sequential dilutions being done with a multichannel pipette.
# On completion of the above 2 hour incubation of the BHK-21/C13 cells, the media is replaced with alpha-MEM medium supplemented with 3% (v/v) FBS. The cells are now ready to be infected with the various sample dilutions of virus. Aliquots (50 µL) of the various dilutions are transferred into the appropriate wells of the plate. The resulting infected cells are incubated for 2 days at 37°. Then 50 µL of a 0.15% (v/v) solution of neutral red dye in Hank's Balanced Salt Solution (pH 7.3, Gibco Canada Inc.) is added to each well. The prepared plate is incubated for 45 min at 37°. Medium from each well is then aspirated and the cells are washed once with 200 µL of Hank's Balanced Salt Solution. […]
# [2] = Human alphaherpesvirus 2, Table IV, read-out: EC50
# [3] = Human alphaherpesvirus 2, Table V
# T1 sequence (P08543 whole entry): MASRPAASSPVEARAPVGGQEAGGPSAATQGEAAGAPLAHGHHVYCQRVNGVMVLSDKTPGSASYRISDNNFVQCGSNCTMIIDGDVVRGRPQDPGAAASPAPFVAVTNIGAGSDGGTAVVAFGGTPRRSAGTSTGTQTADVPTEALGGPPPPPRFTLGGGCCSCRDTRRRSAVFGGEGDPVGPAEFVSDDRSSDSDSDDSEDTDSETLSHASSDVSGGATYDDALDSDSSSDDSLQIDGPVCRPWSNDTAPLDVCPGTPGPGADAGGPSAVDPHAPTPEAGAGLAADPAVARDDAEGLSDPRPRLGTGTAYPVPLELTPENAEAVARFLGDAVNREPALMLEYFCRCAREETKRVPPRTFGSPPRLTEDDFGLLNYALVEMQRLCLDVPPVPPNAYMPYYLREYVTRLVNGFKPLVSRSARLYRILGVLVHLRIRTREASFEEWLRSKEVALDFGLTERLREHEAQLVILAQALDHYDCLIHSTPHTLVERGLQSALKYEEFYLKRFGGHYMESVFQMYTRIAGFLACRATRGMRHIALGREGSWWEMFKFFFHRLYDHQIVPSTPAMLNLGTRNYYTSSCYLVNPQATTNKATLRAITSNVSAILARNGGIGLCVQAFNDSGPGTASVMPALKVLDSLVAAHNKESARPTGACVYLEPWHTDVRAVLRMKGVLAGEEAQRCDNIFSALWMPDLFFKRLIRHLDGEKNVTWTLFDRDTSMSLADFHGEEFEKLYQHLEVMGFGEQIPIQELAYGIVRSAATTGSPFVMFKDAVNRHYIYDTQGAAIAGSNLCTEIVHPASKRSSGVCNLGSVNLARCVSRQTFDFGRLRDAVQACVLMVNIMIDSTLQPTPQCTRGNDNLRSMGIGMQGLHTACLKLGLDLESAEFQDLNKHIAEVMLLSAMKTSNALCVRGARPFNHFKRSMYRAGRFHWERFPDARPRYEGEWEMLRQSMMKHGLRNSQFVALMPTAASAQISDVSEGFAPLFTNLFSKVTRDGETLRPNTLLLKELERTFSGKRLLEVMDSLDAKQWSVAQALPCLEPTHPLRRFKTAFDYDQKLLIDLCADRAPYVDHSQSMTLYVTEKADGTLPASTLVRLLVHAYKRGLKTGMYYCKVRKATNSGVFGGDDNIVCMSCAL
Structure (SMILES),IC50 ([1]; Table IV),EC50 (HSV-2; [2]),IC50 ([1]; Table V),EC50 (HSV-2; [3])
"CCCC(CCC)NC(=O)NC(C(=O)CC(CC(=O)C(C)(C)C)C(=O)NC(C(=O)NCC(C)(CC)CC)C1(C(=O)O)CCCC1)C(C)(C)C [Pr2CHNHC(O) / NHCH2CEt2Me, Pr2CHNHC(O)-Tbg-CH2-(R)-CH(CH2C(O)CMe3)C(O)-Asp(cyPn)-NHCH2CEt2Me]",0.34 µM,18 µM,–,–
"CCCC(CCC)NC(=O)NC(C(=O)CC(CC(=O)C(C)(C)C)C(=O)NC(C(=O)NCC(CC)(CC)CC)C1(C(=O)O)CCCC1)C(C)(C)C [Pr2CHNHC(O) / NHCH2CEt3, Pr2CHNHC(O)-Tbg-CH2-(R)-CH(CH2C(O)CMe3)C(O)-Asp(cyPn)-NHCH2CEt3]",0.52 µM,19 µM,–,–
"CCCC(CCC)NC(=O)NC(C(=O)CC(CC(=O)C(C)(C)C)C(=O)NC(C(=O)NCCC(C)(C)C)C1(C(=O)O)CCCC1)C(C)(C)C [Pr2CHNHC(O) / NHCH2CH2CMe3, Pr2CHNHC(O)-Tbg-CH2-(R)-CH(CH2C(O)CMe3)C(O)-Asp(cyPn)-NHCH2CH2CMe3]",0.58 µM,72 µM,–,–
"CCCC(CCC)NC(=O)NC(C(=O)CC(CC(=O)C(C)(C)C)C(=O)NC(C(=O)NCC(C)(C)CC)C1(C(=O)O)CCCC1)C(C)(C)C [Pr2CHNHC(O) / NHCH2CMe2Et, Pr2CHNHC(O)-Tbg-CH2-(R)-CH(CH2C(O)CMe3)C(O)-Asp(cyPn)-NHCH2CMe2Et]",0.24 µM,16 µM,–,–
"CCCC(CCC)NC(=O)NC(C(=O)CC(CC(=O)C(C)(C)C)C(=O)NC(C(=O)NCC(C)(C)CCC)C1(C(=O)O)CCCC1)C(C)(C)C [Pr2CHNHC(O) / NHCH2CMe2Pr, Pr2CHNHC(O)-Tbg-CH2-(R)-CH(CH2C(O)CMe3)C(O)-Asp(cyPn)-NHCH2CMe2Pr]",0.42 µM,35 µM,–,–
"CCCC(CCC)NC(=O)NC(C(=O)CC(CC(=O)C(C)(C)C)C(=O)NC(C(=O)NC(C)(C)C(C)(C)C)C1(C(=O)O)CCCC1)C(C)(C)C [Pr2CHNHC(O) / NHCMe2CMe3, Pr2CHNHC(O)-Tbg-CH2-(R)-CH(CH2C(O)CMe3)C(O)-Asp(cyPn)-NHCMe2CMe3]",0.51 µM,38 µM,–,–
"CCCC(CCC)NC(=O)NC(C(=O)CC(CC(=O)C(C)(C)C)C(=O)NC(C(=O)NN(CC)C(C)(C)C)C1(C(=O)O)CCCC1)C(C)(C)C [Pr2CHNHC(O) / NHN(Et)CMe3, Pr2CHNHC(O)-Tbg-CH2-(R)-CH(CH2C(O)CMe3)C(O)-Asp(cyPn)-NHN(Et)CMe3]",0.22 µM,80 µM,–,–
"CCCC(CCC)NC(=O)NC(C(=O)CC(CC(=O)C(C)(C)C)C(=O)NC(C(=O)NNC(C)(C)C)C1(C(=O)O)CCCC1)C(C)(C)C [Pr2CHNHC(O) / NHNHCMe3, Pr2CHNHC(O)-Tbg-CH2-(R)-CH(CH2C(O)CMe3)C(O)-Asp(cyPn)-NHNHCMe3]",0.22 µM,84 µM,–,–
CCCC(CCC)NC(=O)NC(C(=O)CC(CC(=O)C(C)(C)C)C(=O)NC(C(=O)NC(C)C(C)(C)C)C1(C(=O)O)CCCC1)C(C)(C)CC [Pr2CHNHC(O)-NH-(S)-CH(CMe2Et)-C(O)-CH2-(R)-CH(CH2C(O)CMe3)C(O)-Asp-(cyPn)-NH-(R)-CH(Me)CMe3],–,–,0.25 µM,13 µM
CCCC(CCC)NC(=O)NC(C(=O)CC(CC(=O)C(C)C)C(=O)NC(C(=O)NCC(C)(C)C)C1(C(=O)O)CCCC1)C(C)(C)C [Pr2CHNHC(O)-Tbg-CH2-(R)-CH(CH2-C(O)CHMe2)C(O)-Asp(cyPn)-NHCH2-CMe3],–,–,0.36 µM,39 µM
CCCC(CCC)NC(=O)NC(C(=O)CC(CC(=O)C(C)(C)CC)C(=O)NC(C(=O)NCC(C)(C)C)C1(C(=O)O)CCCC1)C(C)(C)C [Pr2CHNHC(O)-Tbg-CH2-(R)-CH(CH2-C(O)CMe2Et)C(O)-Asp(cyPn)-NHCH2-CMe3],–,–,0.21 µM,33 µM
CCCC(CCC)NC(=O)NC(C(=O)CC(CC(=O)C(C)(C)C)C(=O)NC(C(=O)NCC(C)(C)C)C(CCC)C(=O)O)C(C)(C)C [Pr2CHNHC(O)-Tbg-CH2-(R)-CH(CH2-C(O)CMe3)C(O)-Asp{(R)-Pr}-NHCH2CMe3],–,–,0.25 µM,46 µM
C=CCC(C(=O)O)C(NC(=O)C(CC(=O)C(NC(=O)NC(CCC)CCC)C(C)(C)C)CC(=O)C(C)(C)C)C(=O)NCC(C)(C)C [Pr2CHNHC(O)-Tbg-CH2-(R)-CH(CH2-C(O)CMe3)C(O)-Asp{(R)-allyl}-NHCH2CMe3],–,–,0.3 µM,62 µM

# From patent publication EP0560267B1, “Isosteric antiherpes peptide derivatives” (BOEHRINGER INGELHEIM (CANADA) LTD., priority 1992, dated 1993)
